Measurements taken from ChEMBL document CHEMBL1142856, “Design, synthesis, and structure-activity relationship of podocarpic acid amides as liver X receptor agonists for potential treatment of atherosclerosis” (Bioorg Med Chem Lett, 2005).

Columns and labels:
[1] = molecular target: T1, Oxysterols receptor LXR-alpha (Homo sapiens, UniProt Q13133); assay: Inhibitory concentration in LXRSPA alpha binding assay
T1 sequence (Q13133 whole entry): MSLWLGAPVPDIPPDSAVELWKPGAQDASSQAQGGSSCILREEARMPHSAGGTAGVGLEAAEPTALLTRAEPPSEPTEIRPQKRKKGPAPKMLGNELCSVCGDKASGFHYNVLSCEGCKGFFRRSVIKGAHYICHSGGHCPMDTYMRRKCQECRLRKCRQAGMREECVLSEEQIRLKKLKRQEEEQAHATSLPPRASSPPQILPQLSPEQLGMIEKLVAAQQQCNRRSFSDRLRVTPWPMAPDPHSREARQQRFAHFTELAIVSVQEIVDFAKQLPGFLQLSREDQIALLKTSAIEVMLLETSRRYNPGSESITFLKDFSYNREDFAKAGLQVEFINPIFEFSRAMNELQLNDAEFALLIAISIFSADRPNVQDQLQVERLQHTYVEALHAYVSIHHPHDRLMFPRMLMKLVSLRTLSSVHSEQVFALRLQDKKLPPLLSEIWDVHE

[2] = molecular target: T2, Oxysterols receptor LXR-beta (Homo sapiens, UniProt P55055); assay: Inhibitory concentration in LXRSPA beta binding assay
T2 sequence (P55055 whole entry): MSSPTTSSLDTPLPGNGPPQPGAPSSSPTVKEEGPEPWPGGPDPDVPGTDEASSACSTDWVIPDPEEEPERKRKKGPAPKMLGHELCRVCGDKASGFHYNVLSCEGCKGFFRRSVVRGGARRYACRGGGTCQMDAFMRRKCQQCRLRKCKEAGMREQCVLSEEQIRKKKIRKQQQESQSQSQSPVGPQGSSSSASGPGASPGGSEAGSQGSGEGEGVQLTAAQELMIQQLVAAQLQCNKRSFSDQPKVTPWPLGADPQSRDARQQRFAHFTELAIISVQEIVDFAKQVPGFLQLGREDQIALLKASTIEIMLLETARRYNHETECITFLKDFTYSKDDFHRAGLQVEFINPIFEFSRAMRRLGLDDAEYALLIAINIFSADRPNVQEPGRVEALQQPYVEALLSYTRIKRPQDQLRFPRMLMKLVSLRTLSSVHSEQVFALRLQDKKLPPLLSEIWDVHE

[3] = molecular target: T2, Oxysterols receptor LXR-beta; assay: Effective concentration in recombinant human LXRbeta ligand binding domain in homogeneous time-resolved fluorescence assay
[4] = molecular target: T1, Oxysterols receptor LXR-alpha; assay: Effective concentration in recombinant human LXRalpha ligand binding domain in homogeneous time-resolved fluorescence assay
[5] = molecular target: T3, Oxysterols receptor LXR-beta (Homo sapiens) (UniProt P55055)
T3 sequence (whole entry): T2 sequence (P55055 whole entry)
Description: TA max fold induction against LXR beta

[6] = molecular target: T4, Oxysterols receptor LXR-alpha (Homo sapiens) (UniProt Q13133)
T4 sequence (whole entry): T1 sequence (Q13133 whole entry)
Description: TA max fold induction against LXR alpha

Row | Induction [5] | Induction [6] | SMILES | IC50 [1] | IC50 [2] | EC50 [3] | EC50 [4]
1 |  |  | C=CCOC(=O)[C@@]1(C)CCC[C@]2(C)c3cc(O)ccc3CC[C@@H]12 | > 15 µM | > 15 µM | > 50 µM | > 50 µM
2 | 54 | 60 | CC(=O)Oc1ccc2c(c1)[C@@]1(C)CCCC(C)(C(=O)OC(=O)[C@@]3(C)CCC[C@]4(C)c5cc(OC(C)=O)ccc5CC[C@@H]34)[C@@H]1CC2 (stereo partly specified) |  |  |  | 
